US8614246B2, “Indole derivatives for treating neurodegenerative diseases” (Centre National de la Recherche Scientifique (CNRS), priority 2009, dated 2013)

Columns and labels:
[1] = tested on: dopaminergic neurons (TH+ neurons) in primary cultures of ventral mesencephalon; experiment: Neuroprotection: counting of remaining TH+ neurons in primary cultures of ventral mesencephalon (spontaneous death of dopaminergic neurons); format: cell-based; details: Product 10 nM, 8 days culture, rat embryo ventral mesencephalon; untreated control = 100
Protocol: (§1) Dissection. Dissection consists of extracting embryos from the uterus of a rat after fifteen days of gestation. The brain of each embryo is then dissected under magnifying binoculars in order to extract the ventral mesencephalus.
(§2) Seeding. Mesencephalons are grouped in a flask containing 2 mL of L15 medium and then mechanically dissociated (30 repeat operations), 5 mL of L15 medium are added. The suspension is allowed to stand for 8 minutes. The 5 mL float is then recovered in a new flask and the cells are dissociated again (30 repeat operations). 5 mL of L15 is added again and the suspension is left to stand for 8 minutes. The 5 mL float is added to the previous float. The cells thus extracted are then centrifuged for 5 minutes at 1000 rpm^−1. The cell sediment is dissolved in a Neurobasal medium supplemented with 1% of B27, 1% of glutamine and 1% of a mixture of penicillin and streptomycin. The cells are then seeded at an appropriate dilution (0.6 embryos per well in 24-well plates and 0.4 per well in 48-well plates). The cultures are incubated at 37° C. in a wet atmosphere enriched with 5% CO2 in 24-well or 48-well plates.
(§3) Treatment. After 24 hours, two-thirds of the medium in each well is replaced by a new medium enriched with the product to be tested at the appropriate dilution. The medium is replaced in the same way after 4 days of culture.
(§4) Immunohistochemistry. After 8 days culture, the cells are fixed by a solution of 4% formaldehyde and then washed three times with PBS. The cells are then submitted to anti-tyrosine hydroxylase (TH) immunohistochemistry, developed by a secondary antibody coupled to a fluorophore emitting in the red (Cy3).
(§5) Analyses. Neuroprotection is evaluated by counting positive TH neurons with 10 fields per well directly under an inverted fluorescence microscope, reported as a percentage of the untreated control. Experiments are done on three wells per condition. Three independent experiments are done under these conditions. The total neuritic length per cell is calculated using Explora Nova's Neurite Outgrowth software on 60 to 100 neurons photographed independently per condition.
(§6) Primary cultures of ventral mesencephalon of rat embryos after 15.5 days of gestation under conditions causing spontaneous death of dopaminergic neurons, are maintained in the presence or absence of the compounds to be tested for 8 days. After fixing, the cultures are submitted to immunocytochemistry directed against tyrosine hydroxylase, a specific marker of dopaminergic neurons.
The neuroprotective potential of each compound is then estimated by counting the number of remaining neurons (TH^+ neurons) under a fluorescence microscope. The results for the different treatments are expressed as a percentage of the number of neurons remaining relative to untreated cultures (Control).
(§7) All experiments were done by comparison with a positive control, dibutyryl-AMP cyclic (db-AMPc) (Mourlevat S. et al. Mol. Pharmacol. 2003, 64 (3), 578-586).

[2] = tested on: dopaminergic neurons (TH+ neurons) in primary cultures of ventral mesencephalon; experiment: Neuritogenesis: total neuritic length per dopaminergic neuron in primary cultures of ventral mesencephalon; format: cell-based; details: Product 10 nM, 8 days culture, rat embryo ventral mesencephalon; untreated control = 100
Protocol: as §1, §2, §3, §4, §5, §6
Neuritogenesis is quantified by measuring the total neuritic length per dopaminergic neuron (neuritic length/TH^+ neuron) using an image analyser on a minimum of sixty photographed neurons per condition (10-30% of all dopaminergic neurons).
as §7

[3] = tested on: reactive oxygen species (ROS) in neurones of ventral mesencephalon cultures; experiment: Cellular test with dihydrorhodamine 123 (DHR-123); format: cell-based, rat; details: compounds 10 nM for eight days, 50 μM DHR-123 30 minutes; control = 100; Trolox at 10 μM per FIG. 1
Protocol: Dihydrorhodamine 123 or DHR123 is used as an indicator of reactive oxygen species (ROS). It is uncharged and not fluorescent and passes passively through the cellular membrane before being oxidised in contact with free radicals, into rhodamine 123 emitting green fluorescence.
The quantity of intracellular ROS is reduced when the cells are treated by an anti-oxidant. This reduction results in a quantifiable decay in emitted fluorescence in the presence of DHR123.
In order to conclude the role of the anti-oxidant capacity of compounds according to the invention in the observed neuroprotectrive activity, the cultures were placed strictly under the same conditions as for the neuroprotection/neuritogenesis test. Thus, the cultures were kept for eight days in the presence of a concentration of 10 nM of each of the tested tryptaminic derivatives. On the 8th day in vitro (DIV 8), 50 μM of DHR-123 (Sigma) was added and the cells were incubated for 30 minutes at 37° C. They were then washed three times, treated once again by compounds according to the invention and placed in a medium without any phenol red. Living fluorescent neurones that were immediately photographed can be observed, the fluorescence density per neurone being quantified under an inverted fluorescence microscope by an image analysis software.

CCCCCCCCCCCCCCCCNCCc1c[nH]c2ccccc12 [Compound 2c, N-(2-(1H-indol-3-yl)ethyl)hexadecan-1-amine]
TH+ neurons, % relative to control ± SEM [1]: 131.9 ± 4.7 %
Neuritic length/TH+ neuron, % relative to control ± SEM [2]: 197.0 ± 14.0 %
IF/neurone (%) (fluorescence intensity per neurone) [3]: 47.8 ± 4.7 %
